Measurements from patent EP3290040A1, “PROPHYLACTIC AND THERAPEUTIC AGENT FOR COMPLICATIONS AFTER CATARACT SURGERY” (Honjo, Megumi, priority 2015, dated 2016).

What was measured:
Format in all cases: cell-based
HT-1080 cell = experiment: Inhibitory action on collagen gel contraction (cell-containing collagen gel); parameters: key: When a contraction level was almost equal to that of a group to which Ripasudil was not added, (+) was used; (++) was used in the case where contraction was inhibited; (+++) was used in the case where contraction was significantly inhibited; details: HT1080 collagen gel, observed after two or three days
Procedure: HT-1080 cell suspension adjusted to a density of 150,000 to 200,000 cells/mL with a medium (medium: E'MEM (Sigma)/10% FBS/NEAA/PCSM), and a solution, obtained by mixing A, B and C solutions (A solution: Cellmatrix (Collagen Type I 3 mg/mL), B solution: concentrated culture medium, 10 x MEM Hank's culture medium, and C solution: buffer for reconstitution) of collagen gel culture kit (Nitta Gelatin Inc.) mixed at a ratio of 8 : 1 : 1 and cooling the obtained mixture, were mixed at a ratio of 1.4 : 1, and the obtained mixture was seeded in a 48 Well Plate at 500 µL/well and gelatinized in a CO2 incubator to produce a cell-containing collagen gel. After gelation, 1 mL of the medium in which Ripasudil was adjusted to 0.1 µM, 1.0 µM or 10.0 µM was added on the gel, and an injection needle was inserted between the gel and the wall surface to release the gel from the wall surface, and the gel was incubated to stand in a CO2 incubator. After two or three days, the contraction of the gel was observed, and photos were taken to evaluate the actions of Ripasudil.

[1] = test system: Human lens epithelial cells (SRA 01/04); experiment: Cell proliferation (DNA synthesis ability) of lens epithelial cells, BrdU incorporation ELISA; details: SRA 01/04 cells, 24 hours, FIG. 1
Procedure: Human lens epithelial cells (SRA 01/04 (RIKEN Cell Bank)) were cultured using 20% FBS-DMEM medium under conditions at 37°C and 5% CO2. The concentration of SRA 01/04 cells was adjusted using 2% FBS-DMEM medium, and the cells were seeded in a 96-well plate at 100 µL/well (5000 cells/well) and incubated for 24 hours under conditions at 37°C and 5% CO2. The medium was exchanged to 5% FBS-DMEM medium, to which TGFβ was added at 10 ng/mL (final concentration) or Ripasudil at 10, 30, or 100 µM (final concentration), and then the cells were cultured for another 24 hours. The cell proliferation ELISA, BrdU (colorimetric) kit (Roche) was used to measure the amount of intracellular 5-bromo-2'-deoxyuridine (BrdU) incorporation at a measurement wavelength of 450 nm with Multiskan MS version 8.0 (LABSYSTEMS), thereby to evaluate the effect on the cell proliferation of SRA 01/04 cells.

Human normal fibroblasts = experiment: Fibroblast proliferation, BrdU incorporation (Cell Proliferation ELISA BrdU kit); details: cultured 2 days, no added Ripasudil = 100%
Procedure: Human normal fibroblasts (Sanko Junyaku Co., Ltd.) were seeded at 2000 cells/well and cultured overnight. Next day, the medium (FGM-2 (Sanko Junyaku Co., Ltd.)) was exchanged (150 µL) and then Ripasudil was added in a volume of 10 µL to make final concentrations of 0.1 µM, 1.0 µM, and 10.0 µM. […] Fixation and antibody addition, washing and color development, and reaction stopping were performed according to the protocol of the Cell Proliferation ELISA BrdU kit (Roche). Then, a plate reader was used to measure OD540-620 to evaluate the action of Ripasudil on fibroblast proliferation. […]

C[C@H]1CNCCCN1S(=O)(=O)c1cccc2cncc(F)c12 [Ripasudil, 4-fluoro-5-{[(2S)-2-methyl-1,4-diazepan-1-yl]sulfonyl}isoqu inoline]
Inhibition of contraction (HT-1080 cell; Ripasudil 0.1 µM): + | Inhibition of contraction (HT-1080 cell; Ripasudil 1.0 µM): ++ | Inhibition of contraction (HT-1080 cell; Ripasudil 10.0 µM): +++ | DNA synthesis of human lens epithelial cells ([1]; Ripasudil 30 µM): statistically significant decrease | DNA synthesis of human lens epithelial cells ([1]; Ripasudil 10, 30 or 100 µM): dose-dependent inhibitory action | BrdU incorporation (% of control) (Human normal fibroblasts; Ripasudil 0.1 µM): 80.0 % of control | BrdU incorporation (% of control) (Human normal fibroblasts; Ripasudil 1.0 µM): 59.3 % of control | BrdU incorporation (% of control) (Human normal fibroblasts; Ripasudil 10.0 µM): 10.9 % of control
